Assay results reported in patent publication US20250011316A1, “PEROXIREDOXIN 3 INHIBITORS AND METHODS OF USE FOR TREATING CANCER” (Wake Forest University Health Sciences, priority 2022, published 2025).
Values after ≈ are worked out from the molar mass of the structure shown.

Columns and labels:
[1] = target: T1, PRX3 (Homo sapiens, UniProt P30048); test: Crosslinking study: PRX3 western blot of H-MESO cell lysates; assay type: cell-based; details: H-MESO cells treated 24 hours; TS at 2.5 or 5 μM; reducing SDS-PAGE, PRX3 western blot (FIG. 3)
T1 construct: endogenous in cells; host or cells: H-MESO malignant mesothelioma cells
T1 sequence (P30048 62-256): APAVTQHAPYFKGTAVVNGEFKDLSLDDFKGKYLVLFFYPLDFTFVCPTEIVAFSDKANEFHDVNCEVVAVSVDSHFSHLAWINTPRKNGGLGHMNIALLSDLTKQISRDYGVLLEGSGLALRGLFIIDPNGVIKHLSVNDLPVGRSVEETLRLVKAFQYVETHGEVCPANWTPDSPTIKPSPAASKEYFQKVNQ
Description: Malignant Mesothelioma (MM) cells (H-MESO cell line) were plated into 6-well plates in complete tissue culture media. Cells were allowed to adhere for 24 hours before being treated with indicated concentrations of thiostrepton (TS), (1) or (5) (DMSO Stocks) for 24 hours. Cell lysates were generated using standard RIPA buffer, protein concentrations were determined using a Bradford Assay and 20 μg of total protein per sample were separated by reducing SDS-Polyacrylamide Gel Electrophoresis. Proteins were transferred to a PVDF membrane, blocked with 5% Bovine Serum Albumin (BSA) for 1 hour and incubated with PRX3 primary antibody overnight at 4° C. in IX Tris Buffered Saline with Tween (TBST). Membranes were washed 3X with IX TBST and incubated with horseradish peroxidase conjugated (HRP) secondary antibody for 1 hour at room temperature. Membranes were washed 3x in IX TBST and HRP signal was developed using Enhanced Chemiluminescence and visualized on a GE digital imager.

[2] = tested on: Enterococcus hirae (ATCC #10541); test: Antimicrobial Activity Assay (MIC / growth inhibition); assay type: cell-based; details: ATCC10541; Enterococcus hirae; analogs tested at 20 μM final concentration
Description: The overnight growth was then diluted into growth media to make a single solution of E. hirae with a final optical density at 600 nm=0.02 AU. A 20 mM stock solution of Thiostrepton in DMSO was made and used to make multiple dilutions of TS in DMSO. Each TS dilution (0.1 mL) was then added to a test tube containing 10 mL of the diluted E. hirae and grown at 37° C. overnight while shaking at 180 rpm. The next morning, each tube was visually inspected to determine if the cells grew. Final concentrations tested were 0.120, 0.090, 0.075, 0.060, 0.045, 0.030, and 0.015 μM TS. […] Three replicates were made on three separate days (n=9). […] For TS analogs, the dilute E. hirae was treated with 20 μM final concentration of each analog (three replicates each). […] DMSO was used as a positive control (complete cell growth) and 20 μM thiostrepton was used as a negative control.

[3] = Solubility Assay (HPLC); assay type: physicochemical; details: HEPES/NaCl buffer, aqueous with cosolvent or surfactant or cyclodextrin, kinetic from dmso stock; 20 mM HEPES, 100 mM NaCl, pH 7.5, 18-24 hours at ambient temperature; read-out: Solubility
Method in brief: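 Compound from 20 mM DMSO stock added to 20 mM HEPES, 100 mM NaCl, pH 7.5, rotated 18-24 h at ambient temperature, then centrifuged 10 min at 20,000×g to remove solids. Supernatant diluted in DMSO and quantified by HPLC peak area against the closest of 200 μM and 20 μM standards, corrected for dilution.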

[4] = tested on: human SK—OV-3 ovarian cancer cells; test: Cellular Activity Assay (cytotoxicity, crystal violet); assay type: cell-based; details: Homo sapiens, SK—OV-3 cells, treated for 48 hr, 0.1-100 μM, crystal violet absorbance at 540 nm
Method in brief: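 SK-OV-3 cells plated, allowed 24 h recovery, then treated 48 hr with compound at 0.1-100 μM. Live cells were fixed (3.0% formaldehyde), stained with 0.1% crystal violet and read at 540 nm. EC50 was fitted after normalizing to matched-DMSO controls.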

[5] = target: T2, purified human PRX3 (Homo sapiens, UniProt P30048); test: Biochemical PRX3 Inhibition Assay (non-reducible crosslink by SDS PAGE + single adduct by MALDI-TOF MS); details: 100 μM PRX3 with TRX2/thioredoxin reductase/NADPH system and hydrogen peroxide, 1-2 hr at 37° C.
T2 construct: made in house
T2 sequence (P30048 62-256): T1 sequence (P30048 62-256)
Method in brief: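 Purified human PRX3 (100 µM) cycled with TRX2, thioredoxin reductase, NADPH regenerating system and H2O2, incubated with compound 1–2 h at 37 °C. Non-reducible crosslink quantified by densitometry of SDS-PAGE (~46 vs ~23 kDa) after DTT; single-adduct fraction from MALDI-TOF MS peak intensities, background-corrected against DMSO.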

SMILES: C=C(NC(=O)c1csc(-c2ccc(N)cc2)n1)C(=O)NC(=C)C(=O)OC [(5), Methyl 2-(2-(2-(4-aminophenyl)thiazole-4-carboxamido)acrylamido)acrylate]
- Covalent PRX3 crosslinking (PRX3-X-PRX3) [1]: Similar, yet less robust

SMILES: C=C(NC(=O)C(=C)NC(=O)c1csc(-c2ccc(N)cc2)n1)C(N)=O [(1), N-(3-((3-amino-3-oxoprop-1-en-2-yl)amino)-3-oxoprop-1-en-2-yl)-2-(4-aminophenyl)thiazole-4-carboxamide]
- Covalent PRX3 crosslinking (PRX3-X-PRX3) [1]: No PRX3 —X —PRX3 crosslinking was observed

SMILES: C=C(NC(=O)c1csc(-c2ccc(NC(=O)CCCCCN=[N+]=[N-])cc2)n1)C(=O)NC(=C)C(=O)OC [Compound 25, Methyl 2-(2-(2-(4-(6-azidohexanamido)phenyl)thiazole-4-carboxamido)acrylamido)acrylate]
- MIC [2]: > 20 µM
- solubility [3]: < 100 µM
- EC50 [4]: 10 to 25 µM
- PRX3 Inhibition (Crosslink + Mono-adduct) [5]: ++ (50-90%)

SMILES: C=C(NC(=O)c1csc(N2CCC(NC(=O)OC(C)(C)C)CC2)n1)C(=O)NC(=C)C(=O)OC [Compound 12, Methyl 2-(2-(2-(4-((tert-butoxycarbonyl)amino)piperidin-1-yl)thiazole-4-carboxamido)acrylamido)acrylate]
- MIC [2]: > 20 µM
- solubility [3]: < 100 µM
- EC50 [4]: 1 to 10 µM
- PRX3 Inhibition (Crosslink + Mono-adduct) [5]: +++ (>90%)

SMILES: C=C(NC(=O)c1csc(-c2ccc(COC(=O)NCc3ccccc3)cc2)n1)C(=O)NC(=C)C(=O)OC [Compound 30, Methyl 2-(2-(2-(4-(((benzylcarbamoyl)oxy)methyl)phenyl)thiazole-4-carboxamido)acrylamido)acrylate]
- MIC [2]: > 20 µM
- solubility [3]: < 100 µM
- EC50 [4]: 25 to 100 µM
- PRX3 Inhibition (Crosslink + Mono-adduct) [5]: + (5-50%)

SMILES: C=C(NC(=O)c1csc(C2CCCN(C(=O)OC(C)(C)C)C2)n1)C(=O)NC(=C)C(=O)OC (stereo not drawn) [Compound 3, Tert-butyl 3-(4-((3-((3-methoxy-3-oxoprop-1-en-2-yl)amino)-3-oxoprop-1-en-2-yl)carbamoyl)thiazol-2-yl)piperidine-1-carboxylate]
- MIC [2]: > 20 µM
- solubility [3]: 100 to 1000 µM (≈ 46.5 to 465 µg/mL)
- EC50 [4]: 10 to 25 µM
- PRX3 Inhibition (Crosslink + Mono-adduct) [5]: ++ (50-90%)

SMILES: C=C(NC(=O)c1csc(-c2ccc(OCCOC)cc2)n1)C(=O)NC(=C)C(=O)OC [Compound 24, Methyl 2-(2-(2-(4-(2-methoxyethoxy)phenyl)thiazole-4-carboxamido)acrylamido)acrylate]
- MIC [2]: > 20 µM
- solubility [3]: < 100 µM
- EC50 [4]: 1 to 10 µM
- PRX3 Inhibition (Crosslink + Mono-adduct) [5]: ++ (50-90%)

SMILES: C=C(NC(=O)c1csc(N2CCCC(C(=O)NCC(C)C)C2)n1)C(=O)NC(=C)C(=O)OC (stereo not drawn) [Compound 28, Methyl 2-(2-(2-(3-(isobutylcarbamoyl)piperidin-1-yl)thiazole-4-carboxamido)acrylamido)acrylate]
- MIC [2]: > 20 µM
- solubility [3]: < 100 µM
- EC50 [4]: 1 to 10 µM
- PRX3 Inhibition (Crosslink + Mono-adduct) [5]: +++ (>90%)

SMILES: C=C(NC(=O)c1csc(-c2ccc(OC)cc2)n1)C(=O)NC(=C)C(=O)OC [Compound 7, Methyl 2-(2-(2-(4-methoxyphenyl)thiazole-4-carboxamido)acrylamido)acrylate]
- MIC [2]: > 20 µM
- solubility [3]: < 100 µM
- EC50 [4]: 1 to 10 µM
- PRX3 Inhibition (Crosslink + Mono-adduct) [5]: ++ (50-90%)

SMILES: C=C(NC(=O)c1csc(N2CCC[C@@H](NC(=O)OC(C)(C)C)C2)n1)C(=O)NC(=C)C(=O)OC [Compound 11, Methyl (R)-2-(2-(2-(3-((tert-butoxycarbonyl)amino)piperidin-1-yl)thiazole-4-carboxamido)acrylamido)acrylate]
- MIC [2]: > 20 µM
- solubility [3]: < 100 µM
- EC50 [4]: 1 to 10 µM
- PRX3 Inhibition (Crosslink + Mono-adduct) [5]: +++ (>90%)

SMILES: C=C(NC(=O)c1csc(C2CCN(C(=O)OC(C)(C)C)CC2)n1)C(=O)NC(=C)C(=O)OC [Compound 1, Tert-butyl 4-(4-((3-((3-methoxy-3-oxoprop-1-en-2-yl)amino)-3-oxoprop-1-en-2-yl)carbamoyl)thiazol-2-yl)piperidine-1-carboxylate]
- MIC [2]: > 20 µM
- solubility [3]: 100 to 1000 µM (≈ 46.5 to 465 µg/mL)
- EC50 [4]: 1 to 10 µM
- PRX3 Inhibition (Crosslink + Mono-adduct) [5]: ++ (50-90%)

SMILES: C=C(NC(=O)c1csc(N2CCC(COC(=O)NCCCOC)CC2)n1)C(=O)NC(=C)C(=O)OC [Compound 32, Methyl 2-(2-(2-(4-((((3-methoxypropyl)carbamoyl)oxy)methyl)piperidin-1-yl)thiazole-4-carboxamido)acrylamido)acrylate]
- MIC [2]: > 20 µM
- solubility [3]: 100 to 1000 µM (≈ 51 to 510 µg/mL)
- EC50 [4]: 25 to 100 µM
- PRX3 Inhibition (Crosslink + Mono-adduct) [5]: ++ (50-90%)

SMILES: C=C(NC(=O)c1csc(N2CCC(C(=O)NCCNC(=O)OC(C)(C)C)CC2)n1)C(=O)NC(=C)C(=O)OC [Compound 15, Methyl 2-(2-(2-(4-((2-((tert-butoxycarbonyl)amino)ethyl)carbamoyl)piperidin-1-yl)thiazole-4-carboxamido)acrylamido)acrylate]
- MIC [2]: > 20 µM
- solubility [3]: < 100 µM
- EC50 [4]: 1 to 10 µM
- PRX3 Inhibition (Crosslink + Mono-adduct) [5]: +++ (>90%)

SMILES: C=C(NC(=O)c1csc(N2CCC(N(C)C(=O)OCC)CC2)n1)C(=O)NC(=C)C(=O)OC [Compound 21, Methyl 2-(2-(2-(4-((ethoxycarbonyl)(methyl)amino)piperidin-1-yl)thiazole-4-carboxamido)acrylamido)acrylate]
- MIC [2]: > 20 µM
- solubility [3]: < 100 µM
- EC50 [4]: 1 to 10 µM
- PRX3 Inhibition (Crosslink + Mono-adduct) [5]: +++ (>90%)

SMILES: C=C(NC(=O)c1csc(N2CCC(CNC(=O)OCC)CC2)n1)C(=O)NC(=C)C(=O)OC [Compound 22, Methyl 2-(2-(2-(4-(((ethoxycarbonyl)amino)methyl)piperidin-1-yl)thiazole-4-carboxamido)acrylamido)acrylate]
- MIC [2]: > 20 µM
- solubility [3]: < 100 µM
- EC50 [4]: 1 to 10 µM
- PRX3 Inhibition (Crosslink + Mono-adduct) [5]: +++ (>90%)

SMILES: C=C(NC(=O)c1csc(N2CCC(C(=O)NCCCOC(C)C)CC2)n1)C(=O)NC(=C)C(=O)OC [Compound 29, Methyl 2-(2-(2-(4-((3-isopropoxypropyl)carbamoyl)piperidin-1-yl)thiazole-4-carboxamido)acrylamido)acrylate]
- MIC [2]: > 20 µM
- solubility [3]: 100 to 1000 µM (≈ 50.8 to 508 µg/mL)
- EC50 [4]: 1 to 10 µM
- PRX3 Inhibition (Crosslink + Mono-adduct) [5]: +++ (>90%)

SMILES: C=C(NC(=O)c1csc(N2CCC(NC(=O)COCCOC)CC2)n1)C(=O)NC(=C)C(=O)OC [Compound 34, Methyl 2-(2-(2-(4-(2-(2-methoxyethoxy)acetamido)piperidin-1-yl)thiazole-4-carboxamido)acrylamido)acrylate]
- MIC [2]: > 20 µM
- solubility [3]: > 1000 µM
- EC50 [4]: 1 to 10 µM
- PRX3 Inhibition (Crosslink + Mono-adduct) [5]: +++ (>90%)

SMILES: C=C(NC(=O)c1csc(-c2ccc(NC(=O)OC(C)(C)C)nc2)n1)C(=O)NC(=C)C(=O)OC [Compound 2, Methyl 2-(2-(2-(6-((tert-butoxycarbonyl)amino)pyridine-3-yl)thiazole-4-carboxamido)acrylamido acrylate]
- MIC [2]: > 20 µM
- solubility [3]: < 100 µM
- EC50 ([4]; SK-OV-3, 48 h): 1 to 10 µM
- PRX3 Inhibition (Crosslink + Mono-adduct) [5]: ++ (50-90%)
